# Assay results as given in ChEMBL document CHEMBL1240386, “Pharmacokinetics of antituberculosis drugs in pulmonary tuberculosis patients with type 2 diabetes” (Antimicrob Agents Chemother, 2010).
# Assays:
# Type in all cases: ADME, organism-based
# [1] = AUC (0 to 24 hrs) in tuberculosis patient at 10 mg/kg, po by HPLC analysis; set-up: time < 24 hr, dose 10 mg/kg, route oral; details: human, plasma
# [2] = AUC (0 to 24 hrs) in diabetic tuberculosis patient at 10 mg/kg, po and 10 mg/kg, iv by HPLC analysis; details: human, plasma
# [3] = Cmax in diabetic tuberculosis patient at 10 mg/kg, po and 10 mg/kg, iv by HPLC analysis; details: human, in vivo
# [4] = organism: Homo sapiens; test: Ratio of half life in diabetic tuberculosis patient to half life in tuberculosis patient; details: in vivo
# [5] = Half life in tuberculosis patient at 10 mg/kg, po by HPLC analysis; set-up: dose 10 mg/kg, route oral; details: human, in vivo
# [6] = Half life in diabetic tuberculosis patient at 10 mg/kg, po and 10 mg/kg, iv by HPLC analysis; details: human, in vivo
# [7] = Tmax in diabetic tuberculosis patient at 10 mg/kg, po and 10 mg/kg, iv by HPLC analysis; details: human, in vivo
# [8] = organism: Homo sapiens; test: Ratio of Cmax in diabetic tuberculosis patient to Cmax in tuberculosis patient; details: in vivo
# [9] = Tmax in tuberculosis patient at 10 mg/kg, po by HPLC analysis; set-up: dose 10 mg/kg, route oral; details: human, in vivo
# [10] = organism: Homo sapiens; test: Ratio of AUC (0 to 24 hrs) for diabetic tuberculosis patient to AUC (0 to 24 hrs) for tuberculosis patient; details: in vivo
# [11] = Cmax in tuberculosis patient at 10 mg/kg, po by HPLC analysis; set-up: dose 10 mg/kg, route oral; details: human, in vivo
# [12] = test system: Homo sapiens; test: Ratio of sAUC (0 to 24 hrs) for diabetic tuberculosis patient to sAUC (0 to 24 hrs) for tuberculosis patient at 15 mg/kg, po; set-up: dose 15 mg/kg, route oral; details: in vivo
# [13] = AUC (0 to 24 hrs) in tuberculosis patient at 15 mg/kg, po by HPLC analysis; set-up: time < 24 hr, dose 15 mg/kg, route oral; details: human, plasma
# [14] = Cmax in diabetic tuberculosis patient at 15 mg/kg, po by HPLC analysis; set-up: dose 15 mg/kg, route oral; details: human, in vivo
# [15] = Tmax in tuberculosis patient at 15 mg/kg, po by HPLC analysis; set-up: dose 15 mg/kg, route oral; details: human, in vivo
# [16] = Cmax in tuberculosis patient at 15 mg/kg, po by HPLC analysis; set-up: dose 15 mg/kg, route oral; details: human, in vivo
# [17] = Tmax in diabetic tuberculosis patient at 15 mg/kg, po by HPLC analysis; set-up: dose 15 mg/kg, route oral; details: human, in vivo
# [18] = test system: Homo sapiens; test: Ratio of Cmax in diabetic tuberculosis patient to Cmax in tuberculosis patient at 15 mg/kg, po; set-up: dose 15 mg/kg, route oral; details: in vivo
# [19] = AUC (0 to 24 hrs) in diabetic tuberculosis patient at 15 mg/kg, po by HPLC analysis; set-up: time < 24 hr, dose 15 mg/kg, route oral; details: human, plasma
# [20] = AUC (0 to 24 hrs) in tuberculosis patient at 30 mg/kg, po by HPLC analysis; set-up: time < 24 hr, dose 30 mg/kg, route oral; details: human, plasma
# [21] = test system: Homo sapiens; test: Ratio of AUC (0 to 24 hrs) for diabetic tuberculosis patient to AUC (0 to 24 hrs) for tuberculosis patient at 30 mg/kg, po; set-up: dose 30 mg/kg, route oral; details: in vivo
# [22] = AUC (0 to 24 hrs) in diabetic tuberculosis patient at 30 mg/kg, po by HPLC analysis; set-up: time < 24 hr, dose 30 mg/kg, route oral; details: human, plasma
# [23] = test system: Homo sapiens; test: Ratio of Cmax in diabetic tuberculosis patient to Cmax in tuberculosis patient at 30 mg/kg, po; set-up: dose 30 mg/kg, route oral; details: in vivo
# [24] = Cmax in diabetic tuberculosis patient at 30 mg/kg, po by HPLC analysis; set-up: dose 30 mg/kg, route oral; details: human, in vivo
# [25] = Cmax in tuberculosis patient at 30 mg/kg, po by HPLC analysis; set-up: dose 30 mg/kg, route oral; details: human, in vivo
# [26] = Tmax in diabetic tuberculosis patient at 30 mg/kg, po by HPLC analysis; set-up: dose 30 mg/kg, route oral; details: human, in vivo
# [27] = Tmax in tuberculosis patient at 30 mg/kg, po by HPLC analysis; set-up: dose 30 mg/kg, route oral; details: human, in vivo
# [28] = Apparent oral clearance in tuberculosis patient at 10 mg/kg, po by HPLC analysis; set-up: dose 10 mg/kg, route oral; details: human, in vivo
# [29] = Bioavailability in diabetic tuberculosis patient at 10 mg/kg, po and 10 mg/kg, iv by HPLC analysis; details: human, in vivo
# [30] = Apparent volume of distribution in tuberculosis patient at 10 mg/kg, po by HPLC analysis; set-up: dose 10 mg/kg, route oral; details: human, in vivo, read-out: Vc/F
# [31] = Apparent volume of distribution in diabetic tuberculosis patient at 10 mg/kg, po and 10 mg/kg, iv by HPLC analysis; details: human, in vivo, read-out: Vc/F
# [32] = Oral bioavailability in tuberculosis patient at 10 mg/kg by HPLC analysis; details: human, in vivo
smiles,measurement,setting,value
CO[C@H]1/C=C/O[C@@]2(C)Oc3c(C)c(O)c4c(O)c(c(/C=N/N5CCN(C)CC5)c(O)c4c3C2=O)NC(=O)/C(C)=C\C=C\[C@H](C)[C@H](O)[C@@H](C)[C@@H](O)[C@@H](C)[C@H](O)[C@@H]1C,AUC(0-t) at 24 h,[1],8300 ng·h/mL
same,AUC(0-t),[2],5700 ng·h/mL
same,Cmax,[3],1100 ng/mL
same,Ratio,[4],0.94
same,half-life,[5],2.4 h
same,half-life,[6],2.3 h
same,Tmax,[7],3 h
same,Ratio,[8],0.78
same,Tmax,[9],4 h
same,Ratio,[10],0.69
same,Cmax,[11],1400 ng/mL
CC[C@@H](CO)NCCN[C@@H](CC)CO [ETHAMBUTOL],Ratio,[12],1.02
same,AUC(0-t) at 24 h,[13],13500 ng·h/mL
same,Cmax,[14],2200 ng/mL
same,Tmax,[15],3 h
same,Cmax,[16],1950 ng/mL
same,Tmax,[17],3 h
same,Ratio,[18],1.12
same,AUC(0-t) at 24 h,[19],13800 ng·h/mL
NC(=O)c1cnccn1 [PYRAZINAMIDE],AUC(0-t) at 24 h,[20],468000 ng·h/mL
same,Ratio,[21],0.88
same,AUC(0-t) at 24 h,[22],409000 ng·h/mL
same,Ratio,[23],0.96
same,Cmax,[24],45500 ng/mL
same,Cmax,[25],47000 ng/mL
same,Tmax,[26],1 h
same,Tmax,[27],1.5 h
CO[C@H]1/C=C/O[C@@]2(C)Oc3c(C)c(O)c4c(O)c(c(/C=N/N5CCN(C)CC5)c(O)c4c3C2=O)NC(=O)/C(C)=C\C=C\[C@H](C)[C@H](O)[C@@H](C)[C@@H](O)[C@@H](C)[C@H](OC(C)=O)[C@@H]1C [RIFAMPIN],AUC(0-t) at 24 h,[1],50600 ng·h/mL
same,AUC(0-t),[2],49000 ng·h/mL
same,CL/F,[28],148 mL/min
same,bioavailability,[29],69%
same,Vd/F,[30],27.6 L
same,Vd/F,[31],27.4 L
same,Tmax,[7],2 h
same,Tmax,[9],2.5 h
same,bioavailability,[32],74%
same,Cmax,[11],9600 ng/mL
